Entries after “also recorded” stand apart in the source; their conditions may differ.

Data set [1] addresses T1, human NTCP (Homo sapiens, UniProt Q14973).
T1 sequence (Q14973 1-349): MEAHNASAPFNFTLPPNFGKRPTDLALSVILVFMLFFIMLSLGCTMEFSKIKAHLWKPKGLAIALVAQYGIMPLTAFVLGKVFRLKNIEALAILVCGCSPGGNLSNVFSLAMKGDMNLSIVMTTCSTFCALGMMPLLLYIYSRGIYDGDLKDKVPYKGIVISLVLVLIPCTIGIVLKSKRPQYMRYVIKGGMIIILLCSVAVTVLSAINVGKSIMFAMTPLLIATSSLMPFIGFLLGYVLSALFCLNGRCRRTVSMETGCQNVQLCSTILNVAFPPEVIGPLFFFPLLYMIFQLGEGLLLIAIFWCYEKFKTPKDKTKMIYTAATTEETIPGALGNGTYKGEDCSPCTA
Kind of data set: Taurocholate uptake kinetics into NTCP-HEK293 cells. As to conditions: Figure S1.

For another data set, the target named is T2, human ASBT (Homo sapiens, UniProt Q12908).
T2 sequence (Q12908 1-348): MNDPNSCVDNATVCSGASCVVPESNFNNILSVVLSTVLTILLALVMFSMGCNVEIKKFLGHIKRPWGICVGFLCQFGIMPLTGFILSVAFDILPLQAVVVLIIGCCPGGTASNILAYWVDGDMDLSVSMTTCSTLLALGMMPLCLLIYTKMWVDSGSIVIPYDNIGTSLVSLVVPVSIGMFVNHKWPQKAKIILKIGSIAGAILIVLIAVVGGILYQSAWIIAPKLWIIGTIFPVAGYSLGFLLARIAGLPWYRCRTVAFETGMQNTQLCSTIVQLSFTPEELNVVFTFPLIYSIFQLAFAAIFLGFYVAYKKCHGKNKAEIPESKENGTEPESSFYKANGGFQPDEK
It is filed as cell-based. The conditions noted are these: for potency estimated from few doses: read-out: Estimated Ki for ASBT; for taurocholate uptake into ASBT-MDCK cells, percent of control: single drug concentration, same as in NTCP screening (typically 100 μM).

Data set [2] has as its target T1, human NTCP. It is filed as cell-based. The conditions noted are these: for NTCP inhibitor or non-inhibitor: inhibitor = Ki less than 300 μM; for potency estimated from few doses: read-out: Estimated Ki for NTCP.
A further data set is described as follows: Cytotoxicity study. The conditions noted are these: dog, ASBT-MDCK cells.
The target in data set [3] is T1, human NTCP. It is filed as cell-based.

As for `C[C@H](CCC(=O)NCCS(=O)(=O)O)[C@H]1CC[C@H]2[C@@H]3[C@H](O)C[C@@H]4C[C@H](O)CC[C@]4(C)[C@H]3C[C@H](O)[C@]12C` [taurocholate, Taurocholate], at human NTCP [1], the “Kt (taurocholate Michaelis-Menten constant)” value is given as 22.7(±3.4) μM, the Vmax is recorded as 1.80(±0.03) pmol/sec/cm^2 and the “passive permeability Pp” value is 1.27(±0.03)x10^−6 cm/sec.
For orientation: viability means the share of living cells, or the viability signal relative to a control. Read a low viability as more harm to the cells. As to `CCCCC(=O)N(Cc1ccc(-c2ccccc2-c2nnn[nH]2)cc1)[C@H](C(=O)O)C(C)C` [Valsartan], at human ASBT, the potency estimated from few doses is 1260 µM. At human NTCP [2], the “NTCP inhibitor or non-inhibitor” value is given as “did not inhibit NTCP” and the potency estimated from few doses was more than 100 µM. Moreover, the viability at 10 min, 100 μM in the data set “Cytotoxicity study” amounted to 77.9%.
For orientation: Ki means a dissociation constant, usually derived from enzyme kinetics or from competition with a known ligand. Low readings indicate higher affinity, high ones lower affinity. For the compound `CC(C)OC(=O)C(C)(C)Oc1ccc(C(=O)c2ccc(Cl)cc2)cc1` [Fenofibrate], on human ASBT, the potency estimated from few doses is 121 ± 33 µM and the “taurocholate uptake into ASBT-MDCK cells, percent of control” value is given as 64.7%. The same compound registered a Ki at human NTCP [3] of 129 ± 20 µM. Besides, on human NTCP [2], the “NTCP inhibitor or non-inhibitor” value is “inhibited NTCP” and the potency estimated from few doses was 211 ± 60 µM. The compound further registered a viability at 10 min, 100 μM in “Cytotoxicity study” of 79.2%.
In the case of `CCCN(CCC)S(=O)(=O)c1ccc(C(=O)O)cc1` [Probenecid], the results for the potency estimated from few doses on human ASBT and at human NTCP [2] were 425 ± 155 µM and 435 ± 114 µM, respectively. On human NTCP [3], this compound displayed a Ki of 544 ± 217 µM.
As to `CCc1nn(CCCN2CCN(c3cccc(Cl)c3)CC2)c(=O)n1CCOc1ccccc1` [Nefazodone], at human ASBT, the potency estimated from few doses is 30.8 ± 3.6 µM and the “taurocholate uptake into ASBT-MDCK cells, percent of control” value is given as “below 50%”. Moreover, on human NTCP [3], the Ki is 126 ± 20 µM. At human NTCP [2], the “NTCP inhibitor or non-inhibitor” value was “NTCP inhibitors” and the potency estimated from few doses is 100 ± 8 µM.
The matching figures for `CN1CCN(CCCN2c3ccccc3Sc3ccc(Cl)cc32)CC1` [Prochlorperazine]: 27.4 ± 4.6 µM, “below 50%”, 209 ± 27 µM, “NTCP inhibitors” and 280 ± 37 µM.
Turning to `C[C@H]1C[C@@H]2[C@H]([C@@H](O)C[C@@]3(C)[C@H]2CC[C@]3(O)C(=O)CO)[C@@]2(C)C=CC(=O)C=C12` [Methylprednisolone], the “ASBT inhibitor or non-inhibitor” value on human ASBT (inhibitor = Ki below 300 μM) is “inhibited NTCP but not ASBT”. At human ASBT, the potency estimated from few doses was more than 100 µM. The same compound registered a Ki on human NTCP [3] of 238 ± 33 µM. In addition, the “fold more potent NTCP inhibition than ASBT inhibition” value on human NTCP [2] (Ki values of Table 4 and 5) is not below 10 fold. Moreover, at human NTCP [2], the “NTCP inhibitor or non-inhibitor” value is “NTCP inhibitors; also recorded: inhibited NTCP but not ASBT” and the potency estimated from few doses was 255 ± 53 µM.
For the compound `COc1cc2nc(N3CCN(C(=O)C4COc5ccccc5O4)CC3)nc(N)c2cc1OC` (centres unmarked) [Doxazosin], the results for the potency estimated from few doses at human ASBT and on human NTCP [2] were 20.9 ± 7.3 µM and 41.2 ± 7.1 µM, respectively. Further, the Ki at human NTCP [3] amounted to 35.3 ± 5.4 µM. Further, the “NTCP inhibitor or non-inhibitor” value on human NTCP [2] is reported as “inhibited NTCP”.
With `CC(C(=O)O)c1cccc(C(=O)c2ccccc2)c1` (centres unmarked) [Ketoprofen], the potency estimated from few doses is 480 ± 609 µM on human ASBT and 361 ± 178 µM on human NTCP [2]. Moreover, the affinity on human NTCP [3] corresponds to a Ki of 321 ± 57 µM.
Regarding `COc1ccc2c(c1)c(CC(=O)O)c(C)n2C(=O)c1ccc(Cl)cc1` [Indomethacin], at human ASBT, the potency estimated from few doses was 31.3 ± 7.7 µM and the “taurocholate uptake into ASBT-MDCK cells, percent of control” value is on record as “below 50%”. Also, on human NTCP [3], the inhibition constant (Ki) turned out to be 173 ± 24 µM. Moreover, on human NTCP [2], the “NTCP inhibitor or non-inhibitor” value was “NTCP inhibitors” and the potency estimated from few doses was 141 ± 14 µM.
On to `COc1ccc([C@@H]2Sc3ccccc3N(CCN(C)C)C(=O)[C@@H]2OC(C)=O)cc1` [Diltiazem], for which the potency estimated from few doses at human ASBT was 237 ± 21 µM; at human NTCP [2], 460 ± 232 µM. The affinity at human NTCP [3], expressed as Ki, was 599 ± 212 µM.
For `CCOc1nc2cccc(C(=O)O)c2n1Cc1ccc(-c2ccccc2-c2nnn[nH]2)cc1` [Candesartan], the results for the potency estimated from few doses at human ASBT and on human NTCP [2] were 67.6 ± 30 µM and 145 ± 44 µM, respectively. Further, the affinity on human NTCP [3], expressed as Ki, was 233 ± 37 µM. In addition, the “NTCP inhibitor or non-inhibitor” value at human NTCP [2] is recorded as “inhibited NTCP”.
As for `CCCC1O[C@@H]2C[C@H]3[C@@H]4CCC5=CC(=O)C=C[C@]5(C)[C@H]4[C@@H](O)C[C@]3(C)[C@]2(C(=O)CO)O1` (some centres unmarked) [Budesonide], on human ASBT, the potency estimated from few doses was 62.6 ± 15 µM and the “taurocholate uptake into ASBT-MDCK cells, percent of control” value is reported as “below 50%”. The affinity on human NTCP [3] corresponds to a Ki of 220 ± 45 µM. At human NTCP [2], the “NTCP inhibitor or non-inhibitor” value is “inhibited NTCP” and the potency estimated from few doses is 264 ± 94 µM.

(Values after article PMC3617406 (Molecular pharmaceutics, 2013).)
